Activity calls are given as the source filed them. No cut-off for these calls is given here.
Columns and labels:
[1] = target: Sphingosine 1-phosphate receptor 1 (Homo sapiens, UniProt P21453); test: Binding affinity to S1PR1 (unknown origin) assessed as dissociation constant by surface plasmon resonance analysis
[2] = Metabolic stability in human plasma assessed as compound remaining at 1 mg/ml measured after 48 hrs by HPLC analysis; type: ADME, cell-free; details: read-out: Stability
[3] = Cytotoxicity against human NCM460 cells assessed as reduction in cell viability incubated for 48 hrs by MTT assay; type: toxicity, cell-based
[4] = target: Sphingosine 1-phosphate receptor 2 (Homo sapiens, UniProt O95136); test: Inhibition of FBAL stimulated S1PR2 in human SW620/5-FU cells incubated for 72 hrs by Western blot analysis; type: cell-based; details: dose 5-15 µM, DDE = dose-dependent effect
Chain of Sphingosine 1-phosphate receptor 2 (O95136 whole entry): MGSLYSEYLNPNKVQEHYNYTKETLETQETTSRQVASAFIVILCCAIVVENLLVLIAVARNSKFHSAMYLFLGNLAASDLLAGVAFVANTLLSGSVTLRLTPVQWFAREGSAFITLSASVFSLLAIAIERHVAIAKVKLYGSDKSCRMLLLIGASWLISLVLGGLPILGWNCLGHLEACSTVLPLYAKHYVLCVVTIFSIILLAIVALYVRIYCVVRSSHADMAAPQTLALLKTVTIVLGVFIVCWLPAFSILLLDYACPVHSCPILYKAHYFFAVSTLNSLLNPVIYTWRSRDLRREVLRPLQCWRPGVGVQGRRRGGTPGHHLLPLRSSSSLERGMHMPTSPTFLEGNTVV

SW620/5-FU [5] = test: Inhibition of FBAL stimulated DPD expression in human SW620/5-FU cells at 10 uM incubated for 72 hrs by Western blot analysis; type: functional, cell-based
SW620/5-FU [6] = test: Induction of apoptosis in human SW620/5-FU cells assessed as viable cells at 10 uM incubated for 24 hrs by Annexin-V/PI staining based flow cytometry assay (reference value: 94.3%); type: functional; details: read-out: Activity
SW620/5-FU [7] = test: Induction of apoptosis in human SW620/5-FU cells at 20 to 40 uM in presence of 5-FU by Hochest33342 staining based assay; type: functional, cell-based; details: dose 20-40 µM
SW620/5-FU [8] = test: Induction of apoptosis in human SW620/5-FU cells assessed as late apoptotic cells at 10 uM incubated for 24 hrs in presence of 5-FU by Annexin-V/PI staining based flow cytometry assay (reference value: 2.97%); type: functional
SW620/5-FU [9] = test: Induction of apoptosis in human SW620/5-FU cells assessed as necrotic cells at 20 uM incubated for 24 hrs in presence of 5-FU by Annexin-V/PI staining based flow cytometry assay (reference value: 0%); type: functional
[10] = Toxicity in nude mouse xenografted with human SW620/5-FU cells assessed as morphological changes in lung at 1 to 10 mg/kg/day, iv by hematoxylin-eosin staining based analysis; type: organism-based; details: in vivo, dose 1-10 mg/kg/day

Chain of Sphingosine 1-phosphate receptor 1 (P21453 whole entry): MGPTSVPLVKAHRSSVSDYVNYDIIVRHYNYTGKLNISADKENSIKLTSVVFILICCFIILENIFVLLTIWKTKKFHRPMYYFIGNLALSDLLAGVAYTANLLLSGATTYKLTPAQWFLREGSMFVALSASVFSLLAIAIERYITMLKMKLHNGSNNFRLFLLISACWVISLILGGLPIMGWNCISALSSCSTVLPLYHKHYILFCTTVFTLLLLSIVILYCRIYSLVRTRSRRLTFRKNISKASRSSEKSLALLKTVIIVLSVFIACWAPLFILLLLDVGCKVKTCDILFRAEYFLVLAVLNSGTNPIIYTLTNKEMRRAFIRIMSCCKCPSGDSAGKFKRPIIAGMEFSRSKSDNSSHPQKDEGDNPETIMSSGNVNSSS

Kd [1]: > 100 nM
remaining at 48 h, 1 mg/ml [2]: 96.4%
inhibition [4]: Dde
Compound: CCC(CC)CN1CCN(C(=O)Nc2cc(Oc3ccc(F)cc3)cc(Oc3ccc(C(=O)NC)cc3)c2)CC1
IC50 at 48 hrs [3]: > 100 µM
inhibition (SW620/5-FU [5]): Active
viability at 10 µM (SW620/5-FU [6]): 93.8%
Activity (SW620/5-FU [7]): Active
Activity (SW620/5-FU [8]): 7.76%
Activity (SW620/5-FU [9]): 0.076%
Activity [10]: Non-Toxic

Reference: ChEMBL document CHEMBL5096216, “Rational Design, Synthesis, and Biological Evaluation of Novel S1PR2 Antagonists for Reversing 5-FU-Resistance in Colorectal Cancer” (J Med Chem, 2022)
